Experimental data as given in US20240101576A1, “HETEROCYCLIC INHIBITORS OF EGFR AND/OR HER2, FOR USE IN THE TREATMENT OF CANCER” (Scorpion Therapeutics, Inc., priority 2020, published 2024).

Key:
Type in all cases: cell-based
EGFR WT (Ba/F3 cells) = molecular target: T1, EGFR WT (Ba/F3 cells) (Homo sapiens, UniProt P00533); test: Inhibitor activity on EGFR-dependent cell growth (CellTiter-Glo, 72 h), Ba/F3 EGFR WT; conditions: read-out: BaF3 WT IC50
T1 construct: expressed in transfected cells; host or cells: Ba/F3 (murine pro-B cells), retroviral transduction, puromycin selection, maintained with EGF
T1 sequence (P00533 25-1210): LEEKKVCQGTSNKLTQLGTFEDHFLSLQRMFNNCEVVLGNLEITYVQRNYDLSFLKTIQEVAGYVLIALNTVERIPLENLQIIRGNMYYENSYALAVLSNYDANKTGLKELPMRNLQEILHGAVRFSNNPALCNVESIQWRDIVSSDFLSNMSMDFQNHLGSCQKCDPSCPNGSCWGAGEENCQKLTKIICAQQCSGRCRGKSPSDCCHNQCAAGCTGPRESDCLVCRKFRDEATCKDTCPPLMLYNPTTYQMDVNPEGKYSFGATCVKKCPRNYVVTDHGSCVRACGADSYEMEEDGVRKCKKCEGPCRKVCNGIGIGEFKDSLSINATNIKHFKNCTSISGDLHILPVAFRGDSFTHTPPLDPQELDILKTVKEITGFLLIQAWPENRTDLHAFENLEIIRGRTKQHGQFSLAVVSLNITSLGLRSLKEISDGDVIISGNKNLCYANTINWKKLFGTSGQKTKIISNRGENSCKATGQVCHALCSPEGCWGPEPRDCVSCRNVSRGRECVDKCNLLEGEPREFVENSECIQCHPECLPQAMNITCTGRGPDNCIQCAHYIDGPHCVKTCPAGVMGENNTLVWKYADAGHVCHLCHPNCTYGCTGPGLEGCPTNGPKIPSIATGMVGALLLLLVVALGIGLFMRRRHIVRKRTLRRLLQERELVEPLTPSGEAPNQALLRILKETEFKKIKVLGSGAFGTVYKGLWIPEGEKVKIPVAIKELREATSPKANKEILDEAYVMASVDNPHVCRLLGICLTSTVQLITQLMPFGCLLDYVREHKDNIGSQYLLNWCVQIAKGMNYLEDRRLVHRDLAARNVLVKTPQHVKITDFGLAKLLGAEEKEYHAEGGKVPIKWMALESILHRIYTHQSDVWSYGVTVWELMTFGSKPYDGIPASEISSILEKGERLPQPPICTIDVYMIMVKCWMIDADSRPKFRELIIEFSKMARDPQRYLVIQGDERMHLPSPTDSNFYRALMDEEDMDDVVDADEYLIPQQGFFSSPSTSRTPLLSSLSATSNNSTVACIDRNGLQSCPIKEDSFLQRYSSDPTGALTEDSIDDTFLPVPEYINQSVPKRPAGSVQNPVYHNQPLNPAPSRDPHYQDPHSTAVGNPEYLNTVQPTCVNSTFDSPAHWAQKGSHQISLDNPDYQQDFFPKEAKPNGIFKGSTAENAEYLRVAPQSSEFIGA
From the text: (§1) Example A. Inhibitor Activity on EGFR-Dependent Cell Growth
(§2) Cell lines are generated by transducing Ba/F3 cells with retroviruses containing vectors with EGFR WT, EGFR L858R, EGFR exon 19del, EGFR L858R/C797S, EGFR exon 20 NPG Ins D770_N771, EGFR exon 20 ASV Ins V769_D770, EGFR exon 20 SVD Ins D770_N771, or EGFR exon 20 FQEA Ins A763_V764 genes and a puromycin selection marker. Transduced cells are selected with puromycin for 7 days and are then be transferred into culture media without Interleukin 3 (IL3). EGFR WT cells are maintained with supplemental EGF. Surviving cells are confirmed to express EGFR by Western blot and maintained as a pool. The IC50 date were included in Table 6 and Table 7.
(§3) 1.1 Cells are harvested from flask into cell culture medium and the cell number counted.
(§4) 1.2 Cells are diluted with culture medium to the desired density and 40 μL of cell suspension is added into each well of 384-well cell culture plate and the seeding density is 800 (FQEA, exon 19del), 600 (WT, NPG, L858R/C797S), or 400 (ASV, SVD, L858R) cells/well.
(§5) 2 Compound Preparation and Treatment
(§6) 2.1 Test compounds are dissolved to 10 mM in a DMSO stock solution. 45 μL of stock solution is transferred to a 384 polypropylene plate (pp-plate). Perform 3-fold, 10-point dilution via transferring 15 μL compound into 30 μL DMSO using a TECAN (EVO200) liquid handler.
(§7) 2.2 Spin plates at room temperature at 1,000 RPM for 1 minute.
(§8) 2.3 Transfer 120 nL of diluted compound from compound source plate into the cell plate.
(§9) 2.4 After compound treatment for 72 hours, perform CTG detection for compound treatment plates as described in “Detection” section.
(§10) 3.1 Plates are removed from incubators and equilibrated at room temperature for 15 minutes.
(§11) 3.2 Thaw the CellTiter Glo reagents and allow to equilibrate to room temperature before the experiment.
(§12) 3.3 Add 40 μL of CellTiter-Glo reagent into each well (at 1:1 to culture medium). Then place the plates at room temperature for 30 min followed by reading on EnVision.
(§13) 4.1 Inhibition activity is calculated following the formula below:
(§14) % Inhibition=100×(LumHC−LumSample)/(LumHC−LumLC) • where HC is obtained from cells treated with 0.1% DMSO only; and LC is obtained from culture medium only.
(§15) 4.2 2. Calculate the IC50 by fitting the Curve using Xlfit (v5.3.1.3), equation 201.
(§16) Y=Bottom+(Top−Bottom)/(1+10^((Log IC50−X)*HillSlope))

[1] = molecular target: T2, EGFR exon 20 ASV Ins V769_D770 (Ba/F3 cells) (Homo sapiens, UniProt P00533, INS769ASV); test: Inhibitor activity on EGFR-dependent cell growth (CellTiter-Glo, 72 h), Ba/F3 EGFR exon 20 ASV Ins; conditions: read-out: BaF3 ASV IC50
T2 construct: expressed in transfected cells; host or cells: Ba/F3 (murine pro-B cells), retroviral transduction, puromycin selection, IL3-independent pool
T2 sequence (P00533 with tags, fused parts or gaps INS769ASV): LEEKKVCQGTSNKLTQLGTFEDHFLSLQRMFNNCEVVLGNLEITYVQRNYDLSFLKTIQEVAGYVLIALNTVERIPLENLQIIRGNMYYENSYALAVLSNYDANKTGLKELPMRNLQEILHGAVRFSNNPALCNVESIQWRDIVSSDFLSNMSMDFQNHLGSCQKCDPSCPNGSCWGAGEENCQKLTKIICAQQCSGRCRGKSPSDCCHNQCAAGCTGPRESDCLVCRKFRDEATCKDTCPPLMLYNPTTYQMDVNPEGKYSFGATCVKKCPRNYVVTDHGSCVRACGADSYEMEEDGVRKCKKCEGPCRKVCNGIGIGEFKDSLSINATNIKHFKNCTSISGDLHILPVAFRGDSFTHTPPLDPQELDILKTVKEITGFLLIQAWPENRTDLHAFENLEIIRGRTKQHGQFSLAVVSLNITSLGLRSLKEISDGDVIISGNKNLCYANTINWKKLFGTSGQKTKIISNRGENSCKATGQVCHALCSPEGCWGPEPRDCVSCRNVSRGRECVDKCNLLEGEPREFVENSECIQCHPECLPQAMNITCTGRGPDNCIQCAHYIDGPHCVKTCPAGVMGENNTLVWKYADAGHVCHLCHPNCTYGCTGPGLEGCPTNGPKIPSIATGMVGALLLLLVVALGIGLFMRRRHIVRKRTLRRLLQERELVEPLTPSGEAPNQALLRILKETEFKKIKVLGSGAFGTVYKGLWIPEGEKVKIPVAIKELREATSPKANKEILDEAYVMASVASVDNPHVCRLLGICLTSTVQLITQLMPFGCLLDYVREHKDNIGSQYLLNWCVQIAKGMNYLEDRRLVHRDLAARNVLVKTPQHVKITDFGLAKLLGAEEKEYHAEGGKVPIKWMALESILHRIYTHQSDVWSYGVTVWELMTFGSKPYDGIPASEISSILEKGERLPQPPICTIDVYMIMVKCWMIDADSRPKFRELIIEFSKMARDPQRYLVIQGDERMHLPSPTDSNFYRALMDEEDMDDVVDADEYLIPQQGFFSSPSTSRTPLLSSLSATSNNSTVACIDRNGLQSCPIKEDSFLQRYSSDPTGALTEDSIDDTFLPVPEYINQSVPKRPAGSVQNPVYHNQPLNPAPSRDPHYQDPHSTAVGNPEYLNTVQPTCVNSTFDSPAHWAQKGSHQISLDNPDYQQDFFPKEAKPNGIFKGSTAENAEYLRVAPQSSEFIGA
From the text: as §1, §2, §3, §4, §5, §6, §7, §8, §9, §10, §11, §12, §13, §14, §15, §16

[2] = molecular target: T3, EGFR exon 20 SVD Ins D770_N771 (Ba/F3 cells) (Homo sapiens, UniProt P00533, INS770SVD); test: Inhibitor activity on EGFR-dependent cell growth (CellTiter-Glo, 72 h), Ba/F3 EGFR exon 20 SVD Ins; conditions: read-out: BaF3 SVD IC50
T3 construct: expressed in transfected cells; host or cells: Ba/F3 (murine pro-B cells), retroviral transduction, puromycin selection, IL3-independent pool
T3 sequence (P00533 with tags, fused parts or gaps INS770SVD): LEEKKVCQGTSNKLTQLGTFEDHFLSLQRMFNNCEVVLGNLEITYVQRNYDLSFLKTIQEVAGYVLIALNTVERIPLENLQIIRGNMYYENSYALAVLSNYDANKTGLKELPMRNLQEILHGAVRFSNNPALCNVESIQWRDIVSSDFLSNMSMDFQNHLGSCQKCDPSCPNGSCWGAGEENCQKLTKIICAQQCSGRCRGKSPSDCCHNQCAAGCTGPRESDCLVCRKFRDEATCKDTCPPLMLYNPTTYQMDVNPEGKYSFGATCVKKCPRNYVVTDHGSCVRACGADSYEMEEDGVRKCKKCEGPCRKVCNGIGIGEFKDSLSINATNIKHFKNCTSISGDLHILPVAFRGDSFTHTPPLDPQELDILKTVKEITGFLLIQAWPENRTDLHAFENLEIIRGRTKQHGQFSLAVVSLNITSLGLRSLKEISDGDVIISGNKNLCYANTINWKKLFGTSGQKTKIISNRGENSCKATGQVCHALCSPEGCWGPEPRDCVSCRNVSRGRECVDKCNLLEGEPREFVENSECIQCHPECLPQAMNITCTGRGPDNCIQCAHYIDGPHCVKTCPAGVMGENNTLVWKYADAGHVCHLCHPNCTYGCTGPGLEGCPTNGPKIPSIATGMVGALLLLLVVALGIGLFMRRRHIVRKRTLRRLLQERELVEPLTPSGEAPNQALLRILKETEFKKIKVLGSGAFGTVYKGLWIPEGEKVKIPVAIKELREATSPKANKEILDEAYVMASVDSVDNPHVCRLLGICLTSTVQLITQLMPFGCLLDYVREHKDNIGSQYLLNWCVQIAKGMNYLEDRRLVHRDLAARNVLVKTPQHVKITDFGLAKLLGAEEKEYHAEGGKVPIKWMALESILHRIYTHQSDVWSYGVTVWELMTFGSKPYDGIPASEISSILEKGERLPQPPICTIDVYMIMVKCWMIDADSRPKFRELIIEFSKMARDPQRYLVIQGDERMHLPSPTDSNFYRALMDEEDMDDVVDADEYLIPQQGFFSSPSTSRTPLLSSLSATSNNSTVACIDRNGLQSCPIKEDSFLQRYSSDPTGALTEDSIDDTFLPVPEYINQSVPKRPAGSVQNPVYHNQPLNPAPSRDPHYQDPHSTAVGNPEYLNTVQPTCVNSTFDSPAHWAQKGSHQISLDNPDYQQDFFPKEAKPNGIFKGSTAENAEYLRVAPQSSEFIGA
From the text: as §1, §2, §3, §4, §5, §6, §7, §8, §9, §10, §11, §12, §13, §14, §15, §16

[3] = molecular target: T4, EGFR exon 20 FQEA Ins A763_V764 (Ba/F3 cells) (Homo sapiens, UniProt P00533, INS763FQEA); test: Inhibitor activity on EGFR-dependent cell growth (CellTiter-Glo, 72 h), Ba/F3 EGFR exon 20 FQEA Ins; conditions: read-out: BaF3 FQEA IC50
T4 construct: expressed in transfected cells; host or cells: Ba/F3 (murine pro-B cells), retroviral transduction, puromycin selection, IL3-independent pool
T4 sequence (P00533 with tags, fused parts or gaps INS763FQEA): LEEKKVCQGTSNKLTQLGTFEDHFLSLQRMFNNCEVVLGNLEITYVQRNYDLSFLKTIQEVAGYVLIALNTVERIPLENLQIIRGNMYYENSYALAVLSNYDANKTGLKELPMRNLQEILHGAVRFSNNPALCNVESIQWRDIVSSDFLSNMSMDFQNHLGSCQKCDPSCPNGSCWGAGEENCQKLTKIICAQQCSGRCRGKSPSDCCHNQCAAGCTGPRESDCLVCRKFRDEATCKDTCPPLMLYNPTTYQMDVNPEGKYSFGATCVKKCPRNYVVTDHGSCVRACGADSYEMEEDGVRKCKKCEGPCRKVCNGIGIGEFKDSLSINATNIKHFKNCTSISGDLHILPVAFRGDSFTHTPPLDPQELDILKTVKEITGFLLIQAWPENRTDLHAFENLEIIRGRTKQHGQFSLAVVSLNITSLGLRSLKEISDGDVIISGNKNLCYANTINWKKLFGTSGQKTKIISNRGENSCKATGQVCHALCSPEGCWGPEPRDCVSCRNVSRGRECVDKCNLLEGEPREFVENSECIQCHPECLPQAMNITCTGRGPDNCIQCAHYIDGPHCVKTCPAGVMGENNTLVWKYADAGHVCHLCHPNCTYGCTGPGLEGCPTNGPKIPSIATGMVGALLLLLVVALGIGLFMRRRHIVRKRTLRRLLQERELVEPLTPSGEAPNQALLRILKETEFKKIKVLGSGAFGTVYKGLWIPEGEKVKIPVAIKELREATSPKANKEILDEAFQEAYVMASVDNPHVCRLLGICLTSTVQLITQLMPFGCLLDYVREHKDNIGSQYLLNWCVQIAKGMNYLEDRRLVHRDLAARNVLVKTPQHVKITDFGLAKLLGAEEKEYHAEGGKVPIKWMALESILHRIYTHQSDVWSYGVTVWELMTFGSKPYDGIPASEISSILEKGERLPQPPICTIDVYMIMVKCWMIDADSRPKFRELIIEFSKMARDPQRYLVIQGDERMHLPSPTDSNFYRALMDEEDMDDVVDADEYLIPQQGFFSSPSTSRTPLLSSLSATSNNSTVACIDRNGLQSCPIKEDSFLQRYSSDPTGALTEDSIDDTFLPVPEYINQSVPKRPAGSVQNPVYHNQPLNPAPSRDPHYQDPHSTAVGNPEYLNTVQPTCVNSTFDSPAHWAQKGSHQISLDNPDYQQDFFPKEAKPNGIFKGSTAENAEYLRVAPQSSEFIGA
From the text: as §1, §2, §3, §4, §5, §6, §7, §8, §9, §10, §11, §12, §13, §14, §15, §16

| Structure (SMILES) | IC50 (EGFR WT (Ba/F3 cells)) | IC50 [1] | IC50 [2] | IC50 [3] |
| --- | --- | --- | --- | --- |
| CCc1c(F)cccc1Nc1c(-c2ccnc3cnc(OC)nc23)[nH]c2c1C(=O)NCC2 [Compound 791, 3-[(2-ethyl-3-fluorophenyl)amino]-2-[2-methoxypyrido[3,2-d]pyrimidin-8-yl]-1H,5H,6H,7H-pyrrolo[3,2-c]pyridin-4-one] | 100 to 1000 nM | < 100 nM | < 100 nM | 100 to 1000 nM |
| COc1c(Cl)cccc1Nc1c(-c2ccncc2F)[nH]c2c1C(=O)NCC2C[C@H]1CO[C@H](CN(C)C)CO1 (single isomer, unassigned) [Compound 565, (7R*)-3-[(3-chloro-2-methoxyphenyl)amino]-7-{[(2S,5R)-5-[(dimethylamino)methyl]-1,4-dioxan-2-yl]methyl}-2-(3-fluoropyridin-4-yl)-1H,5H,6H,7H-pyrrolo[3,2-c]pyridin-4-one] | > 1000 nM | 100 to 1000 nM | – | – |
| COc1c(Cl)cccc1Nc1c(-c2ccnc(NCc3ccn(C)n3)n2)[nH]c2c1C(=O)NCC2 [Compound 709, 3-[(3-chloro-2-methoxyphenyl)amino]-2-(2-[[(1-methylpyrazol-3-yl)methyl]amino]pyrimidin-4-yl)-1H,5H,6H,7H-pyrrolo[3,2-c]pyridin-4-one] | 100 to 1000 nM | < 100 nM | < 100 nM | 100 to 1000 nM |
| COc1ccc2nccc(-c3[nH]c4c(c3Nc3cccc(Cl)c3OC)C(=O)NC[C@H]4CCF)c2n1 [Compound 745, (R)-3-((3-chloro-2-methoxyphenyl)amino)-7-(2-fluoroethyl)-2-(6-methoxy-1,5-naphthyridin-4-yl)-1,5,6,7-tetrahydro-4H-pyrrolo[3,2-c]pyridin-4-one] | < 100 nM | < 100 nM | < 100 nM | < 100 nM |
| CCc1c(Cl)cccc1Nc1c(-c2ccnc3cnc(OC)nc23)[nH]c2c1C(=O)NCC2 [Compound 800, 3-[(3-chloro-2-ethylphenyl)amino]-2-[2-methoxypyrido[3,2-d]pyrimidin-8-yl]-1H,5H,6H,7H-pyrrolo[3,2-c]pyridin-4-one] | 100 to 1000 nM | < 100 nM | < 100 nM | 100 to 1000 nM |
| COC[C@@H]1CNC(=O)c2c1[nH]c(-c1ccnc3ccc(OC)nc13)c2Nc1cccc(Cl)c1OC (single isomer, unassigned) [Compound 765] | < 100 nM | < 100 nM | < 100 nM | < 100 nM |
| COc1ccc2nccc(-c3[nH]c4c(c3Nc3cccc(Cl)c3OC)C(=O)NCC43CC3)c2n1 [compound 316] | 100 to 1000 nM | < 100 nM | < 100 nM | < 100 nM |
| COc1c(Cl)cccc1Nc1c(-c2ccncc2F)[nH]c2c1C(=O)NCC2CC1CCO1 (single isomer, unassigned) [Compound 783] | > 1000 nM | < 100 nM | – | 100 to 1000 nM |
| COc1c(Cl)cccc1Nc1c(-c2ccncc2F)[nH]c2c1C(=O)NCC2CC1CCO1 (single isomer, unassigned) [Compound 784] | > 1000 nM | 100 to 1000 nM | – | 100 to 1000 nM |
| COc1c(Cl)cccc1Nc1c(-c2ccncc2F)[nH]c2c1C(=O)NCC2CC1CCO1 (single isomer, unassigned) [Compound 785] | 100 to 1000 nM | < 100 nM | – | < 100 nM |
| COc1c(Cl)cccc1Nc1c(-c2ccncc2F)[nH]c2c1C(=O)NCC2CC1CCO1 (single isomer, unassigned) [Compound 786] | 100 to 1000 nM | < 100 nM | – | 100 to 1000 nM |

Next, values leading:

| IC50 (EGFR WT (Ba/F3 cells)) | IC50 [1] | IC50 [2] | IC50 [3] | Structure (SMILES) |
| --- | --- | --- | --- | --- |
| > 1000 nM | > 1000 nM | > 1000 nM | > 1000 nM | COc1c(Cl)cccc1Nc1c(-c2ccnc(NC[C@H]3CCO3)n2)[nH]c2c1C(=O)NCC2 [compound 720] |
| > 1000 nM | 100 to 1000 nM | 100 to 1000 nM | 100 to 1000 nM | COc1c(Cl)cccc1Nc1c(-c2ccncc2F)[nH]c2c1C(=O)NC[C@]21CCN(CC(F)(F)F)C1 [compound 818] |
| > 1000 nM | 100 to 1000 nM | 100 to 1000 nM | 100 to 1000 nM | COc1c(Cl)cccc1Nc1c(-c2ccncc2F)[nH]c2c1C(=O)NC[C@H]2CCF [compound 812] |
| 100 to 1000 nM | 100 to 1000 nM | < 100 nM | 100 to 1000 nM | COc1c(Cl)cccc1Nc1c(-c2ccnc3[nH]c(=O)c(OC)nc23)[nH]c2c1C(=O)NCC2 [compound 729, 8-(3-((3-chloro-2-methoxyphenyl)amino)-4-oxo-4,5,6,7-tetrahydro-1H-pyrrolo[3,2-c]pyridin-2-yl)-2-methoxypyrido[2,3-b]pyrazin-3 (4H)-one] |
| > 1000 nM | 100 to 1000 nM | 100 to 1000 nM | 100 to 1000 nM | COc1c(Cl)cccc1Nc1c(-c2ccnc3cnc(OCCN4CCOCC4)nc23)[nH]c2c1C(=O)NCC2 [compound 506, 3-[(3-chloro-2-methoxyphenyl)amino]-2-{2-[2-(morpholin-4-yl)ethoxy]pyrido[3,2-d]pyrimidin-8-yl}-1H,5H,6H,7H-pyrrolo[3,2-c]pyridin-4-one] |
| > 1000 nM | > 1000 nM | > 1000 nM | > 1000 nM | COc1c(Cl)cccc1Nc1c(-c2ccncc2F)[nH]c2c1C(=O)NC[C@]21CCN(S(C)(=O)=O)C1 [compound 494] |
| 100 to 1000 nM | < 100 nM | < 100 nM | < 100 nM | COc1c(Cl)cccc1Nc1c(-c2ccnc(Nc3cnn(C(C)C)c3)n2)[nH]c2c1C(=O)NCC2 [compound 516, 3-[(3-chloro-2-methoxyphenyl)amino]-2-{2-[(1-isopropylpyrazol-4-yl)amino]pyrimidin-4-yl}-1H,5H,6H,7H-pyrrolo[3,2-c]pyridin-4-one] |
| 100 to 1000 nM | < 100 nM | < 100 nM | < 100 nM | COc1c(Cl)cccc1Nc1c(-c2ccnc3ccc(OCCCN4CCOCC4)nc23)[nH]c2c1C(=O)NCC2 [compound 503, 3-[(3-chloro-2-methoxyphenyl)amino]-2-{6-[3-(morpholin-4-yl)propoxy]-1,5-naphthyridin-4-yl}-1H,5H,6H,7H-pyrrolo[3,2-c] pyridin-4-one] |
| 100 to 1000 nM | < 100 nM | < 100 nM | < 100 nM | COc1cc2nccc(-c3[nH]c4c(c3Nc3cccc(Cl)c3OC)C(=O)NCC4)c2nc1OCCN(C)C [compound 501, 3-[(3-chloro-2-methoxyphenyl)amino]-2-{6-[2-(dimethylamino)ethoxy]-7-methoxy-1,5-naphthyridin-4-yl}-1H,5H,6H,7H-pyrrolo[3,2-c]pyridin-4-one] |
| > 1000 nM | – | – | 100 to 1000 nM | COc1c(Cl)cccc1Nc1c(-c2ccncc2F)[nH]c2c1C(=O)NCC2 [compound 410] |
| > 1000 nM | – | – | 100 to 1000 nM | COc1c(Cl)cccc1Nc1c(-c2ccncn2)[nH]c2c1C(=O)NCC2 [compound 675, 3-[(3-chloro-2-methoxyphenyl)amino]-2-(pyrimidin-4-yl)-1H,5H,6H,7H-pyrrolo[3,2-c]pyridin-4-one] |
